Test results from PubChem BioAssay (NCI).
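Step 1: Grow cells in 96-well plates. Step 2: Expose to compound for 48 hours at 5 concentrations. Step 3: Interpolate endpoints linearly; if unreached, use highest concentration. GI50 = concentration required for 50% inhibition of growth. TGI marks complete inhibition of growth.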

What was measured:
Assay in all cases: NCI-60 cell line screen, 48 h; in the data active = GI50 below about 0.43 µM; inactive = the rest
[1] = system: HCC-2998 colon
[2] = system: SF-268 CNS
[3] = system: HOP-92 NSCLC
[4] = system: NCI-H460 lung
[5] = system: KM12 colon
[6] = system: A549 NSCLC
[7] = system: OVCAR-8 ovarian
[8] = system: TK-10 renal
[9] = system: CAKI-1 renal
[10] = system: A498 renal
[11] = system: RXF 393 renal
[12] = system: SF-295 CNS
[13] = system: K-562 leukemia
[14] = system: MCF7 breast
[15] = system: HL-60(TB) leukemia
[16] = system: RPMI-8226 leukemia
[17] = system: NCI-H23 lung
[18] = system: ACHN renal
[19] = system: SR leukemia
[20] = system: HOP-62 NSCLC
[21] = system: SF-539 CNS
[22] = system: HT29 colon
[23] = system: M14 melanoma
[24] = system: SK-OV-3 ovarian
[25] = system: SK-MEL-5 melanoma
[26] = system: HS 578T breast
[27] = system: PC-3 prostate
[28] = system: NCI/ADR-RES ovarian
[29] = system: NCI-H522 lung
[30] = system: CCRF-CEM leukemia
[31] = system: SNB-19 CNS
[32] = system: MDA-MB-231 breast
[33] = system: 786-0 renal
[34] = system: MALME-3M melanoma
[35] = system: U251 CNS
[36] = system: BT-549 breast
[37] = system: SW-620 colon
[38] = system: UACC-62 melanoma
[39] = system: SN12C renal
[40] = system: NCI-H226 lung
[41] = system: UACC-257 melanoma
[42] = system: HCT-15 colon
[43] = system: SK-MEL-2 melanoma
[44] = system: IGROV1 ovarian
[45] = system: HCT-116 colon
[46] = system: OVCAR-5 ovarian
[47] = system: LOX IMVI melanoma
[48] = system: MDA-MB-435
[49] = system: UO-31 renal
[50] = system: T-47D breast
[51] = system: SNB-75 CNS
[52] = system: OVCAR-4 ovarian
[53] = system: MOLT-4 leukemia
[54] = system: SK-MEL-28 melanoma
[55] = system: OVCAR-3 ovarian
[56] = system: COLO 205 colon
[57] = system: DU-145 prostate

COc1cc(-c2cc(/C=C3\C(=O)Nc4ccc(Cl)cc43)[nH]n2)cc(OC)c1OC
14.5 µM: TGI [29]
92.7 µM: TGI [8]
26.3 µM: TGI [21]
20.5 µM: TGI [9]
26.5 µM: TGI [40]
7.24 µM: TGI [10]
27.9 µM: TGI [51]
8.63 µM: TGI [34]
72.4 µM: TGI [54]
26.7 µM: TGI [30]
21 µM: TGI [43]
71.6 µM: TGI [55]
15.2 µM: TGI [18]
14 µM: TGI [23]
23.6 µM: TGI [49]
7.16 µM: TGI [36]
3.9 µM: TGI [38]
> 100 µM: TGI [1] | TGI [2] | TGI [4] | TGI [5] | TGI [6] | TGI [7] | TGI [11] | TGI [13] | TGI [14] | TGI [17] | TGI [20] | TGI [24] | TGI [26] | TGI [28] | TGI [31] | TGI [32] | TGI [33] | TGI [35] | TGI [37] | TGI [39] | TGI [42] | TGI [44] | TGI [46] | TGI [48] | TGI [52] | TGI [57]
11.6 µM: TGI [41]
16.8 µM: TGI [3]
18.9 µM: TGI [27]
14.9 µM: TGI [56]
6.82 µM: TGI [15]
69.3 µM: TGI [45]
inactive: GI50 [1] 64 µM | GI50 [2] 35.3 µM | GI50 [3] 1.45 µM | GI50 [4] 5.03 µM | GI50 [5] 3.3 µM | GI50 [6] 7.08 µM | GI50 [7] 4.31 µM | GI50 [8] 8.15 µM | GI50 [9] 2.82 µM | GI50 [10] 1.07 µM | GI50 [11] 9.21 µM | GI50 [12] 3.96 µM | GI50 [13] 4.05 µM | GI50 [14] 3.15 µM | GI50 [15] 2.26 µM | GI50 [16] 1.88 µM | GI50 [17] 4.95 µM | GI50 [18] 3.46 µM | GI50 [19] 3.06 µM | GI50 [20] 5.14 µM | GI50 [21] 6.7 µM | GI50 [22] 7.54 µM | GI50 [23] 3.09 µM | GI50 [24] 49.3 µM | GI50 [25] 1.46 µM | GI50 [26] 5.03 µM | GI50 [27] 2.51 µM | GI50 [28] 3.73 µM | GI50 [29] 3.12 µM | GI50 [30] 3.02 µM | GI50 [31] 5.04 µM | GI50 [32] 4.41 µM | GI50 [33] 15.2 µM | GI50 [34] 2.71 µM | GI50 [35] 5.37 µM | GI50 [36] 2.52 µM | GI50 [37] 6.1 µM | GI50 [38] 1.73 µM | GI50 [39] 5.72 µM | GI50 [40] 3.84 µM | GI50 [41] 2.7 µM | GI50 [42] 3.6 µM | GI50 [43] 3.52 µM | GI50 [44] 6.34 µM | GI50 [45] 4.7 µM | GI50 [46] 27.9 µM | GI50 [47] 3.45 µM | GI50 [48] 3.97 µM | GI50 [49] 2.81 µM | GI50 [50] 2.6 µM | GI50 [51] 3.44 µM | GI50 [52] 5.11 µM | GI50 [53] 2.7 µM | GI50 [54] 7.37 µM | GI50 [55] 6.16 µM | GI50 [56] 2.92 µM | GI50 [57] 9.54 µM
4.81 µM: TGI [16]
18.3 µM: TGI [50]
45.1 µM: TGI [22]
34.4 µM: TGI [12]
22.7 µM: TGI [47]
8.87 µM: TGI [53]
12.7 µM: TGI [19]
3.22 µM: TGI [25]
